In assay [1] the test system is H727 lung cancer cell lines (G12V K-Ras mutation). Kind of assay: Inhibition of cancer cell proliferation (CellTiter-Glo). Type of assay: cell-based. Particulars: Homo sapiens, NCI-H727, 72 h, read-out: Cell proliferation activity (H727 cancer cell line proliferation IC50). A digest of the protocol:
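H727 cells (K-Ras G12V), 1000/well, plated overnight then exposed to a compound dose range for 3 days at 37 °C. Proliferation by CellTiter-Glo, normalized to DMSO; IC50 from four-parameter variable-slope fit.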
On the technique in general: In ATP-based viability assays light output follows the ATP content of the culture.

The target of another assay is T1, Son of Sevenless (SOS) (Homo sapiens, UniProt Q07889).
T1 sequence (Q07889 564-1049 limits assumed): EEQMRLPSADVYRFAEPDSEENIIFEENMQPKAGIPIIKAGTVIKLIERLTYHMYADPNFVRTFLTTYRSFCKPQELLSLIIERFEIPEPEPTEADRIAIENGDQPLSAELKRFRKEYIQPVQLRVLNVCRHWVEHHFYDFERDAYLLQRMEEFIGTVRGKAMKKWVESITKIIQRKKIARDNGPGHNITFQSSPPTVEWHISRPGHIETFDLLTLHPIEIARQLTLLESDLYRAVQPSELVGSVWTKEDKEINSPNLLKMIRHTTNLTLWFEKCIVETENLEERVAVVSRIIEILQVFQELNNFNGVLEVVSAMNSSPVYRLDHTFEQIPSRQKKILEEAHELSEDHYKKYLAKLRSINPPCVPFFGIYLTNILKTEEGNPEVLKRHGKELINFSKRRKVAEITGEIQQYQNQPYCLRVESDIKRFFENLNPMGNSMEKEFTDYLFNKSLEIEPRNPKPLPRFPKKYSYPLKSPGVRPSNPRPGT
Kind of assay: Binding to SOS, fluorescence polarization anisotropy (FPA) probe displacement. As to conditions: displacement of FITC-conjugated probe (Example 285), affinity calculated from IC50. A digest of the protocol: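 Test compounds were titrated against SOS pre-bound to a fluorescein-labelled probe, with anisotropy plotted versus compound concentration. Binding affinities were derived from IC50 values obtained by four-parameter dose-response fitting.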

Assay [2] addresses Ras GEF SOS (Son of Sevenless) (Homo sapiens, UniProt Q07889). The assay is described as follows: SOS-mediated nucleotide exchange on Ras (BODIPY-GDP fluorescence). Type of assay: biochemical. Particulars: SOS-mediated exchange of BODIPY-GDP for GTP on Ras. A digest of the protocol:
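Exchange rates were taken from single-exponential fits of the fluorescence time course as BODIPY-GDP on Ras was replaced by GTP. Compound went in first, then GTP and SOS. Mean rates plotted against concentration gave EC50 by four-parameter dose-response fitting.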

The mark [3] stands for this setting: H727 cells, 3 days treatment, CellTiter-Glo.

Where a name gives a salt, the structure may show the parent alone. Read-outs that look alike come from different tables or passages of the source. Bounds are passed on as bounds.

The text below walks through data of patent publication US10501421B1, “Substituted benzimidazoles as modulators of Ras signaling” (VANDERBILT UNIVERSITY, priority 2017, dated 2019).

Chain of Ras GEF SOS (Son of Sevenless) (P01112 1-166 partner limits assumed, one chain of several): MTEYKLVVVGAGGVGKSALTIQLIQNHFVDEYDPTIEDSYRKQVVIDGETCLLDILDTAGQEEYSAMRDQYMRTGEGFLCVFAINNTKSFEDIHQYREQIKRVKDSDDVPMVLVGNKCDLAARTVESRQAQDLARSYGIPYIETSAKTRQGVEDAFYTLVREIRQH

A word on the Ki: it is the dissociation constant of the complex between target and ligand, obtained from inhibition or displacement. Broadly, the EC50 is the concentration at which the effect is half-maximal. For the compound `Fc1ccc(Cn2c(N3CCNCC3)nc3c(-c4ccnn4-c4ccc(Br)cc4)cc(Cl)cc32)cc1Cl` [Example 170, 4-(1-(4-bromophenyl)-1H-pyrazol-5-yl)-6-chloro-1-(3-chloro-4-fluorobenzyl)-2-(piperazin-1-yl)-1H-benzo[d]imidazole trifluoroacetate], the IC50 in assay [1] was in the range of 5 to 20 µM. The inhibition constant (Ki) on Son of Sevenless (SOS) was < 0.5 µM. Moreover, in assay [2], the EC50 is 1 to 5 µM.
`Cc1cnc2nc(N3CCCC(N)C3)n(Cc3ccc(F)c(C)c3)c2c1` (stereo not drawn) [Example 240, 1-(1-(4-fluoro-3-methylbenzyl)-6-methyl-1H-imidazo[4,5-b]pyridin-2-yl)piperidin-3-amine]: in assay [1] (setting [3]), the IC50 is 5 to 20 µM. Further, on Son of Sevenless (SOS), the Ki is > 5 µM. Further, the concentration for a half-maximal effect (EC50) in assay [2] fell in the range of 1 to 5 µM.
Regarding `Cc1cnc2nc(N3CCC(N)C3)n(Cc3ccc(F)c(C)c3)c2c1` (stereo not drawn) [Example 241, 1-(1-(4-fluoro-3-methylbenzyl)-6-methyl-1H-imidazo[4,5-b]pyridin-2-yl)pyrrolidin-3-amine], the IC50 in assay [1] (setting [3]) was > 20 µM. Further, on Son of Sevenless (SOS), the Ki was > 5 µM. This compound also registered an EC50 in assay [2] of 1 to 5 µM.
The corresponding values for `Cc1cnc2nc(N3CC(CN)C3)n(Cc3ccc(F)c(C)c3)c2c1` [Example 248, (1-(1-(4-fluoro-3-methylbenzyl)-6-methyl-1H-imidazo[4,5-b]pyridin-2-yl)azetidin-3-yl)methanamine] are 5 to 20 µM, 0.5 to 1 µM and < 1 µM.
As to `Cc1cc(Cn2c(N3CC(CN)C3)nc3ccc(OC(C)C(F)(F)F)nc32)ccc1F` (stereo not drawn) [Example 259, (1-(3-(4-fluoro-3-methylbenzyl)-5-((1,1,1-trifluorpropan-2-yl)oxy)-3H-imidazo[4,5-b]pyridin-2-yl)azetidin-3-yl)methanamine], in assay [1] (setting [3]), the IC50 is < 1 µM. Moreover, the Ki on Son of Sevenless (SOS) was > 5 µM. Besides, the EC50 in assay [2] lay within 5 to 30 µM.
For `Cc1cc(Cn2c(NCC3CNC3)nc3ccc(OC(C)C(F)(F)F)nc32)ccc1F` (stereo not drawn) [Example 260, N-(azetidin-3-ylmethyl)-3-(4-fluoro-3-methylbenzyl)-5-((1,1,1-trifluoropropan-2-yl)oxy)-3H-imidazo[4,5-b]pyridin-2-amine], in assay [1] (setting [3]), the IC50 is < 1 µM. Further, the Ki on Son of Sevenless (SOS) is > 5 µM. In assay [2], the EC50 was 5 to 30 µM.
On to `Cc1cc(-c2ccccc2Cl)c2nc(N3CCNCC3)n(Cc3cc(C)c(F)c(C)c3)c2c1` [Example 267, 4-(2-chlorophenyl)-1-[(4-fluoro-3,5-dimethylphenyl)methyl]-6-methyl-2-piperazin-1-ylbenzimidazole], for which the IC50 in assay [1] (setting [3]) is 1 to 5 µM. On Son of Sevenless (SOS), the Ki was < 0.5 µM. Besides, the EC50 in assay [2] was < 1 µM.
Turning to `Cc1cc(OC2CCNC2)c2nc(N3CCNCC3)n(Cc3cc(C)c(F)c(C)c3)c2c1` (stereo not drawn) [Example 317, 1-(4-fluoro-3,5-dimethylbenzyl)-6-methyl-2-(piperazin-1-yl)-4-(pyrrolidin-3-yloxy)-1H-benzo[d]imidazole], the IC50 in assay [1] (setting [3]) was in the range of 5 to 20 µM. The inhibition constant Ki at Son of Sevenless (SOS) is 0.5 to 1 µM. In assay [2], the half-maximal effective concentration (EC50) is < 1 µM.
